{
  "source": "patent US12161115B2",
  "about": "“Herbicidal compounds” (SYNGENTA CROP PROTECTION AG, priority 2019, dated 2024)",
  "type_in_all_cases": "in vivo",
  "key": {"barley crop plants": {"tested_on": "barley crop plants", "test": "Crop phytotoxicity comparison, post-emergence", "conditions": "post-emergence", "experimental": "(§1) Seeds of a variety of test species are sown in standard soil in pots (Lolium perenne (LOLPE), Setaria faberi (SETFA), Alopecurus myosuroides (ALOMY), Echinochloa crus-galli (ECHCG), Avena fatua (AVEFA)). After cultivation for one day (pre-emergence) or after 8 days cultivation (post-emergence) under controlled conditions in a glasshouse (at 24/16° C., day/night; 14 hours light; 65% humidity), the plants are sprayed with an aqueous spray solution derived from the formulation of the technical active ingredient in acetone/water (50:50) solution containing 0.5% Tween 20 (polyoxyethelyene sorbitan monolaurate, CAS RN 9005-64-5). Compounds are applied at 250 g/h. The test plants are then grown in a glasshouse under controlled conditions in a glasshouse (at 24/16° C., day/night; 14 hours light; 65% humidity) and watered twice daily. After 13 days for pre and post-emergence, the test is evaluated for the percentage damage caused to the plant. The biological activities are shown in the following table on a five point scale (5=80-100%; 4=60-79%; 3=40-59%; 2=20-39%; 1=0-19%). NT=not tested.\n(§2) Using procedures outlines above, wheat and barley crop plants are treated, post-emergence with compounds A1, A3 or A8 of the present invention or comparator compound C1 (Compound A-38 from WO2014/096289) at the application rates indicated. The compounds were also applied in conjunction with the safener compound cloquintocet-mexyl (CQC) at 50 g/ha."}, "wheat crop plants": {"tested_on": "wheat crop plants", "test": "Crop phytotoxicity comparison, post-emergence", "conditions": "post-emergence", "experimental": "as §1, §2"}, "[1]": {"tested_on": "Echinochloa crus-galli (ECHCG)", "test": "Post-emergence herbicidal glasshouse test", "conditions": "250 g/Ha, evaluated after 13 days", "experimental": "as §1"}, "Lolium perenne (LOLPE) [2]": {"tested_on": "Lolium perenne (LOLPE)", "test": "Post-emergence herbicidal glasshouse test", "conditions": "250 g/Ha, evaluated after 13 days", "experimental": "as §1"}, "Setaria faberi (SETFA) [3]": {"tested_on": "Setaria faberi (SETFA)", "test": "Post-emergence herbicidal glasshouse test", "conditions": "250 g/Ha, evaluated after 13 days", "experimental": "as §1"}, "Avena fatua (AVEFA) [4]": {"tested_on": "Avena fatua (AVEFA)", "test": "Post-emergence herbicidal glasshouse test", "conditions": "250 g/Ha, evaluated after 13 days", "experimental": "as §1"}, "[5]": {"tested_on": "Alopecurus myosuroides (ALOMY)", "test": "Post-emergence herbicidal glasshouse test", "conditions": "250 g/Ha, evaluated after 13 days", "experimental": "as §1"}, "[6]": {"tested_on": "Echinochloa crus-galli (ECHCG)", "test": "Pre-emergence herbicidal glasshouse test", "conditions": "250 g/Ha, evaluated after 13 days", "experimental": "as §1"}, "Lolium perenne (LOLPE) [7]": {"tested_on": "Lolium perenne (LOLPE)", "test": "Pre-emergence herbicidal glasshouse test", "conditions": "250 g/Ha, evaluated after 13 days", "experimental": "as §1"}, "Setaria faberi (SETFA) [8]": {"tested_on": "Setaria faberi (SETFA)", "test": "Pre-emergence herbicidal glasshouse test", "conditions": "250 g/Ha, evaluated after 13 days", "experimental": "as §1"}, "Avena fatua (AVEFA) [9]": {"tested_on": "Avena fatua (AVEFA)", "test": "Pre-emergence herbicidal glasshouse test", "conditions": "250 g/Ha, evaluated after 13 days", "experimental": "as §1"}, "[10]": {"tested_on": "Alopecurus myosuroides (ALOMY)", "test": "Pre-emergence herbicidal glasshouse test", "conditions": "250 g/Ha, evaluated after 13 days", "experimental": "as §1"}},
  "data": [
    {"smiles": "CC#Cc1cc(C)c(C2C(=O)CC3(CCN(C(=O)C(C)=NN(C)C)CC3)CC2=O)c(C)c1", "note": "[Compound A8, 3-[2-(dimethylhydrazono)propanoyl]-9-(2,6-dimethyl-4-prop-1-ynyl-phenyl)-3-azaspiro[5.5]undecane-8,10-dione]", "values": [
      {"measurement": "% phytotoxicity observed, Barley", "setting": "barley crop plants; 30 g/ha", "result": 0, "unit": "%"},
      {"measurement": "% phytotoxicity observed, Barley", "setting": "barley crop plants; 60 g/ha", "result": 0, "unit": "%"},
      {"measurement": "damage to barley crop compared to prior art compound C1", "setting": "barley crop plants; summary of Table B3", "result": "significantly less damaging"},
      {"measurement": "% phytotoxicity observed, Wheat", "setting": "wheat crop plants; 30 g/ha", "result": 0, "unit": "%"},
      {"measurement": "% phytotoxicity observed, Wheat", "setting": "wheat crop plants; 60 g/ha", "result": 10, "unit": "%"},
      {"measurement": "% phytotoxicity observed, Wheat", "setting": "wheat crop plants; 60 g/ha + safener cloquintocet-mexyl (CQC) at 50 g/ha", "result": 10, "unit": "%"},
      {"measurement": "damage to wheat crop compared to prior art compound C1", "setting": "wheat crop plants; summary of Table B3", "result": "significantly less damaging"},
      {"measurement": "percentage damage caused to the plant, five point scale, ECHCG", "setting": "[1]", "result": "5 (5=80-100%)"},
      {"measurement": "percentage damage caused to the plant, five point scale, LOLPE", "setting": "Lolium perenne (LOLPE) [2]", "result": "5 (5=80-100%)"},
      {"measurement": "percentage damage caused to the plant, five point scale, SETFA", "setting": "Setaria faberi (SETFA) [3]", "result": "5 (5=80-100%)"},
      {"measurement": "percentage damage caused to the plant, five point scale, AVEFA", "setting": "Avena fatua (AVEFA) [4]", "result": "5 (5=80-100%)"},
      {"measurement": "percentage damage caused to the plant, five point scale, ALOMY", "setting": "[5]", "result": "5 (5=80-100%)"},
      {"measurement": "percentage damage caused to the plant, five point scale, ECHCG", "setting": "[6]", "result": "5 (5=80-100%)"},
      {"measurement": "percentage damage caused to the plant, five point scale, LOLPE", "setting": "Lolium perenne (LOLPE) [7]", "result": "5 (5=80-100%)"},
      {"measurement": "percentage damage caused to the plant, five point scale, SETFA", "setting": "Setaria faberi (SETFA) [8]", "result": "5 (5=80-100%)"},
      {"measurement": "percentage damage caused to the plant, five point scale, AVEFA", "setting": "Avena fatua (AVEFA) [9]", "result": "5 (5=80-100%)"},
      {"measurement": "percentage damage caused to the plant, five point scale, ALOMY", "setting": "[10]", "result": "5 (5=80-100%)"}
    ]}
  ]
}
